Some results are limits rather than exact numbers.

Experiment [1] concerns CCR2 expressing cells (CD11b+Ly6c+Hi) in peripheral blood. Nature of the experiment: In vivo depletion assay, flow cytometry of peripheral blood (Example 201). Set-up: species or system human CCR2 knock-in mice (C57 background). The conditions noted are these: hCCR2 knock-in mice, IV 0.1 mpk compound + 10 mpk anti-cotinine antibody (SEQ ID NO: 13/14), peripheral blood at 48 hr. Put shortly:
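Flow cytometry of blood collected at study termination quantified percent depletion of CD11b+Ly6c+Hi cells and CCR2 expression, using surface markers CD45, CD3, CD11b, Ly6C, human CCR2 after Fc block, with 7AAD viability stain. Compound given in saline:DMSO:PBS formulation, optionally combined with anti-cotinine antibody, incubated 30 min before administration.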
A general note: In flow cytometry, cells or beads pass a laser one at a time.

Experiment [2] concerns the target anti-cotinine antibody (SEQ ID NO: 11/12, rabbit variable region with human IgG1 Fc DE mutation). The experiment can be described thus: SPR binding of anti-cotinine antibody to ARM compounds, Biacore T200, 37° C. (Example 202). Conditions: SPR Biacore T200, 37° C., pH 7.4, antibody SEQ ID NO: 11/12 captured on protein A; Kd in molar. The essentials: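 Run at 37 °C in 10 mM HEPES pH 7.4, 150 mM NaCl, 0.005% P20, 1% DMSO, with compounds titrated from 200 nM (five 3-fold steps) over protein A–captured antibody. A 1:1 kinetic model on double-referenced data gave rate constants, Kd as koff/kon and residence time 1/koff; results as pKd, run-averaged.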
Background: Surface plasmon resonance follows binding to a sensor surface in real time, without labels.

The target in experiment [3] is human alpha1 nicotinic acetylcholine (nACh) receptor (Homo sapiens, UniProt P02708). Nature of the experiment: Nicotinic acetylcholine receptor antagonism assay, IONFlux automated patch clamp (Example 203). Type of experiment: cell-based. Conditions: for IC50: antagonism of ACh-stimulated human alpha1 nAChR current, patch clamp. Put shortly:
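Cells expressing human α1 nAChR were incubated with a compound dose response (top 10 μM or 100 μM), then stimulated with ACh (10 mM), and peak current was read by automated patch clamp. % inhibition was taken against ACh-alone control, corrected for vehicle and run-down, and fit non-linearly for IC50; runs were averaged.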
(In general: The patch-clamp technique gives a direct electrical read-out from membranes.)

Chain of human alpha1 nicotinic acetylcholine (nACh) receptor (P02708 21-457): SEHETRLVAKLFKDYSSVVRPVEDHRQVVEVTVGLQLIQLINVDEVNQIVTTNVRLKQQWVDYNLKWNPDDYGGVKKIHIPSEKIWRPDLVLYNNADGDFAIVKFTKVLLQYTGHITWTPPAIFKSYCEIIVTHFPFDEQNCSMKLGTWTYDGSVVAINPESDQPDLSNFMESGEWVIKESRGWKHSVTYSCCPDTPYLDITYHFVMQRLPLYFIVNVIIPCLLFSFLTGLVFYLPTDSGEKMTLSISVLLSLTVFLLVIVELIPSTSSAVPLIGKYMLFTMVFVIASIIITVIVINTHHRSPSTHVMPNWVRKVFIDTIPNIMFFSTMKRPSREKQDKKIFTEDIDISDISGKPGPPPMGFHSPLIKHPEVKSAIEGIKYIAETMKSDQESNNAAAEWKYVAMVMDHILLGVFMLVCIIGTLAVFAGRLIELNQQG
Chain of human alpha1 nicotinic acetylcholine (nACh) receptor (P11230 24-501 partner): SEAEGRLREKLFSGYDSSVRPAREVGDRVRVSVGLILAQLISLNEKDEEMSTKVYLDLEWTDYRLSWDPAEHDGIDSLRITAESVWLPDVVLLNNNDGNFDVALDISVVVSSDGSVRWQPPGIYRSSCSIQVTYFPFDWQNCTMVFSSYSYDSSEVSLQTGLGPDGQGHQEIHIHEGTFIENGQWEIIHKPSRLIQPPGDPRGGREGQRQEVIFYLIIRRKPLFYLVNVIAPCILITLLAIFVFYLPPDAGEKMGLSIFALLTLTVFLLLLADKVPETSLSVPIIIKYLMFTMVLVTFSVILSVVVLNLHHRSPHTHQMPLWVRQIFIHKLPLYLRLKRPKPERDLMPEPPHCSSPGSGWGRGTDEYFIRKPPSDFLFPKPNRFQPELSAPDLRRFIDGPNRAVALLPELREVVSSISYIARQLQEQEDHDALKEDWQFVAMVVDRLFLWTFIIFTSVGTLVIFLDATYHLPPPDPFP
Chain of human alpha1 nicotinic acetylcholine (nACh) receptor (Q07001 22-517 partner): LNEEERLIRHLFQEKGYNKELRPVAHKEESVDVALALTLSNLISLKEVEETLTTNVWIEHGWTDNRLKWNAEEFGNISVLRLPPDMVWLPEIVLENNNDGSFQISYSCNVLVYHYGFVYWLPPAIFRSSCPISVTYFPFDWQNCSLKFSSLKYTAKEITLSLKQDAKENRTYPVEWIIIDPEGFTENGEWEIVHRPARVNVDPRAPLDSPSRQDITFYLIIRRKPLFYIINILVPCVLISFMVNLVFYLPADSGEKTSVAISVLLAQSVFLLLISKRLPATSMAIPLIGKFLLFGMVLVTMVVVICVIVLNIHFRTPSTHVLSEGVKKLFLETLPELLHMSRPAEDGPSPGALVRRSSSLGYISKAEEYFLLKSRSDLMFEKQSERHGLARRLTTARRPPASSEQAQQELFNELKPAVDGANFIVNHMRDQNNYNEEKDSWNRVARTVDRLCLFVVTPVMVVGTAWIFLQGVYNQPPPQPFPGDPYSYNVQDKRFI

The term IC50 denotes the concentration that gives 50% inhibition. As for `CC(C)N(C)[C@@H]1CC[C@H](N2CC[C@H](Nc3ncnc4ccc(C(F)(F)F)cc34)C2=O)[C@H](NC(=O)CCCN2CCC3(CCN(CCCNC(=O)[C@H]4CC(=O)N(C)[C@@H]4c4cccnc4)CC3)CC2)C1` [Example 191, (2S,3S)-N-(3-(9-(4-(((1R,2S,5R)-5-(Isopropyl(methyl)amino)-2-((S)-2-oxo-3-((6-(trifluoromethyl)quinazolin-4-yl)amino)pyrrolidin-1-yl)cyclohexyl)amino)-4-oxobutyl)-3,9-diazaspiro[5.5]undecan-3-yl)propyl)-1-methyl-5-oxo-2-(pyridin-3-yl)pyrrolidine-3-carboxamide], in experiment [1], the “% Depletion of CCR2 expressing cells” value was 69%. For the same molecule, the “pKd of Antibody for ARM Compound of Formula (I)” value in experiment [2] is 9.68. Also, in experiment [3], 2950 nM corresponded to half-maximal inhibition (IC50). Moreover, the Emax at 10 µM in experiment [3] (maximum percentage antagonism at maximum concentration tested 10 μM, read-out: Maximum Response) is 74%.

With `CC(C)N(C)[C@@H]1CC[C@H](N2CC[C@H](Nc3ncnc4ccc(C(F)(F)F)cc34)C2=O)[C@H](NC(=O)[C@H]2CC[C@H](C(=O)NCCCOCCCCOCCCNC(=O)[C@H]3CC(=O)N(C)[C@@H]3c3cccnc3)CC2)C1` [Example 194, (1r,4R)-N^1-((1R,2S,5R)-5-(Isopropyl(methyl)amino)-2-((S)-2-oxo-3-((6-(trifluoromethyl)quinazolin-4-yl)amino)pyrrolidin-1-yl)cyclohexyl)-N^4-(3-(4-(3-((2S,3S)-1-methyl-5-oxo-2-(pyridin-3-yl)pyrrolidine-3-carboxamido)propoxy)butoxy)propyl)cyclohexane-1,4-dicarboxamide], the “% Depletion of CCR2 expressing cells” value in experiment [1] was 96%. Besides, the “pKd of Antibody for ARM Compound of Formula (I)” value in experiment [2] is listed as 9.5415. The molecule also yielded an IC50 in experiment [3] of at least 100000 nM. Moreover, in experiment [3] (maximum percentage antagonism at maximum concentration tested 100 μM, read-out: Maximum Response), the Emax at 100 µM was found to be 44.9%.

The values are drawn from patent publication US12521393B2, “Cytotoxicity targeting chimeras for CCR2-expressing cells” (GLAXOSMITHKLINE INTELLECTUAL PROPERTY DEVELOPMENT LIMITED, priority 2021, dated 2026).
